Patent publication US20250223552A1, “METHOD FOR PREPARING T CELLS FOR ADOPTIVE T CELL THERAPY” (ST. JUDE CHILDREN'S RESEARCH HOSPITAL, INC., priority 2022, published 2025)

Legend:
[1] = tested on: F420 tumor; assay: F420 tumor-bearing mice treated with B7-H3 CAR-T cells pre-treated with Arid1a inhibitor; type: in vivo
Method: Data are representative of two independent experiments. Data are shown as mean±s.e.m. *p<0.05, ***p<0.001; two-way ANOVA.
Data are representative of two independent experiments. Log-rank (Mantel-Cox) test was performed for comparing survival curves.
For CAR-T tumor models, the murine osteosarcoma cell line F420 was derived from singly floxed p53+/F-Col2.3 transgenic mice (Zhao et al. (2015) Oncogene 34:5069-5079); 0.5×10^6 F420 cells were injected subcutaneously into naïve mice. Seven days after tumor transplant, 5×10^6 B7-H3 CAR-T cells were transferred i.v. without lymphodepleting chemotherapy and tumor size was measured every two days.
Currently the most widely used adoptive T cell therapy employs the use of CARs. However, the use of CAR-T cells for the treatment of solid tumors remains challenging (Lim & June whether CAR-T cell (2017) Cell 168:724-740). To examine function is enhanced by acute Arid1a inhibition, a CAR targeting murine B7-H3 (Haydar et al. (2021) Neuro-Oncol. 23:999-1011) was used in two B7-H3-positive cell lines, murine osteosarcoma F420 (Zhao et al. (2015) Oncogene 34:5069-5079; Kenneth et al. (2021) Mol. Ther. 29:326-326) and glioma GL261 (Haydar et al. (2021) Neuro-Oncol. 23:999-1011). Murine T cells were activated for 2 days in the presence or absence of the Arid1a inhibitor, followed by retroviral transduction of the B7-H3 CAR to generate CAR-T cells. […] The ability of B7-H3 CAR-T cells to control the growth of F420 cells was then assessed in vivo.

[2] = tested on: B7-H3-expressing F420 tumor cells; assay: Repeat stimulation assay of B7-H3 CAR-T cells with F420 tumor cells; type: cell-based, murine; settings: CAR-T:tumor 3:1, counted every 3 days, FIG. 5
Method: (§1) T cells were transduced with B7-H3 CAR or a control CAR containing only the scFv and transmembrane domain (B7-H3 STOP CAR) and co-cultured with F420 tumor cells at the ratio of 3:1. Cells numbers were assessed every 3 days. Data are compiled from at least two independent experiments. Data are shown as mean±s.e.m. *p<0.05; two-way ANOVA.
(§2) Repeat Stimulation Assay. For repeat stimulation assays, 3×10^5 tumor cells (GL261, F420) were plated in a 24-well plate and allowed to adhere for 4-6 hours at 37° C., CAR-T cells (1×10^6) were then added to the wells containing tumor cells without any exogenous cytokines (tumor: CAR-T cell ratio=1:3). After 3 days of co-culture, CAR-T cells were lifted by gentle pipetting to avoid disrupting adherent tumor cells, and the number of T cells was determined using a hemocytometer. Stimulations and cell counts were repeated every 3 days with the same tumor cells.
(§3) Currently the most widely used adoptive T cell therapy employs the use of CARs. However, the use of CAR-T cells for the treatment of solid tumors remains challenging (Lim & June whether CAR-T cell (2017) Cell 168:724-740). […] The ability of B7-H3 CAR-T cells to control the growth of F420 cells was then assessed in vivo.

[3] = tested on: B7-H3-expressing GL261 tumor cells; assay: Repeat stimulation assay of B7-H3 CAR-T cells with GL261 tumor cells; type: cell-based, murine; settings: CAR-T:tumor 3:1, counted every 3 days, FIG. 4
Method: as §1, with “single-chain variable fragment (scFv)” for “scFv”, “GL261” for “F420”, “***p<0.001;” for “*p<0.05;”
as §2, §3

[4] = tested on: OT-I CD8^+ T cells; assay: OT-I CD8+ T cells activated with anti-CD3/CD28 in presence of Arid1a inhibitor, CD62L by flow cytometry; type: cell-based, mouse; settings: inhibitor 1 μM during 48 hours activation, drug removed, additional 2 days culture with IL-2; FIG. 1
Excerpt: Data are compiled from at least two independent experiments. Data are shown as mean±s.e.m. *p<0.05; two-tailed unpaired Student's t-test.
Flow Cytometry. Antibodies from Biolegend included APC/Cy7 anti-human CD8α, BV785 anti-human CD45RA, PE anti-human CD62L, APC anti-human CD27, PE/Cy7 anti-human CCR7, BV421 anti-human CD95, BV785 anti-mouse/human CD44, BV510 anti-mouse KLRG1, KIRAVIA Blue 520 anti-mouse CD62L, BV605 anti-mouse CD127, BV650 anti-mouse CX3CR1, APC anti-mouse CD8α, ALEXA FLUOR® 700 fluorescent dye anti-mouse CD45.2, APC anti-mouse CD98; PE anti-mouse CXCR3 (eBioscience); and BUV395 anti-human CD3, BUV805 anti-human CD45RO; BUV496 anti-mouse CD45.1, BUV805 anti-mouse CD8α were acquired from BD Biosciences. For surface markers, cells were stained for 30 minutes at 4° C. in PBS+2% (w/v) bovine serum albumin (BSA). […] Samples were acquired on CYTEK® Aurora or BD LSRII flow cytometer and analyzed with FlowJo software.
Effective adoptive T cell therapy for cancer is critically dependent upon the use of T cells with long-term memory potential (Lugli et al. (2020) Trends Immunol. 41:17-28; Gattinoni et al. (2012) Nat. Rev. Cancer 12:671-684; Klebanoff et al. (2005) Proc. Natl. Acad. Sci. USA 102:9571-9576; Hurton et al. (2016) Proc. Natl. Acad. Sci. USA 113: E7788-E7797). Therefore, it was determined whether manipulation of CBAF can improve anti-tumor therapy. […]

[5] = tested on: murine B7-H3 CAR-T cells; assay: Phenotype of B7-H3 CAR-T cells generated from T cells transiently treated with Arid1a inhibitor; type: cell-based; settings: T cells activated 2 days with inhibitor, B7-H3 CAR transduction, additional 6 days culture
Method: Murine CAR-T cells were generated as described before (Haydar et al. (2021) Neuro-Oncol. 23:999-1011) with modification. Naïve CD8^+ T cells from 6-8 weeks old CD45.1^+ mice were activated with plate bound anti-CD3ε (1 μg/ml, Bio-X-Cell), anti-CD28 (2 μg/ml, Bio-X-Cell) and 50 U/ml rhIL-2 (Peprotech). On day 2 post-activation, CD8^+ T cells were transduced with retrovirus expressing B7-H3-CAR or control CAR on recombinant human fibronectin sold under the tradename RETRONECTIN® (Takara)-coated non-tissue culture treated plate in complete RPMI medium supplemented with 50 U/ml rhIL-2. At 48 hours after transduction, CAR-T cells were harvested and expanded in the presence of 10 ng/ml rhIL-15 (Peprotech) for another 3 days and then used d for in vivo and in vitro experiments.
as §3

[6] = tested on: MC38-Ova tumors; assay: MC38-Ova tumor growth after adoptive transfer of inhibitor-pretreated OT-I cells; type: in vivo; settings: OT-I cells transiently treated with inhibitor during activation, transferred into tumor-bearing mice; FIG. 3
Method: Naïve OT-I CD8^+ T cells were activated with anti-CD3/CD28 in the presence or absence of Arid1a inhibitor for 48 hours followed by expansion for another 4 days. Data are representative of two independent experiments. Data are shown as mean±s.e.m. **p<0.01; two-way ANOVA.
(§4) In Vivo Tumor Transplant Experiment. For B16-Ova and MC38-Ova tumors, 0.5×10^6 tumor cells were injected subcutaneously into naïve mice (7-10 weeks of age). OT-I cells (2×10^6) were transferred i.v. 7 days after tumor injection. Tumors were measured every two days.
(§5) Effective adoptive T cell therapy for cancer is critically dependent upon the use of T cells with long-term memory potential (Lugli et al. (2020) Trends Immunol. 41:17-28; Gattinoni et al. (2012) Nat. Rev. Cancer 12:671-684; Klebanoff et al. (2005) Proc. Natl. Acad. Sci. USA 102:9571-9576; Hurton et al. (2016) Proc. Natl. Acad. Sci. USA 113: E7788-E7797). Therefore, it was determined whether manipulation of CBAF can improve anti-tumor therapy. Accordingly, OT-I cells were transduced with sgRNA for Smarcd2 or control sgRNA, and the transduced cells were transferred into animals that were subsequently infected with Lm-Ova. Animals were then inoculated with B16F10 murine melanoma cells expressing Ova (B16-Ova) at memory phase (day >30 post-infection). Improved control of tumor growth and enhanced survival by the Smarcd2-ablated CD8^+ T cells were observed. […]

[7] = tested on: human CD8^+ T cells; assay: Persistence of inhibitor-pretreated human CD8+ T cells in NSG mice at day 30 after adoptive transfer; type: in vivo; settings: transient treatment during activation; recovered after 30 days; FIG. 9
Method: Naïve human CD8^+ T cells were activated with anti-CD3/CD28 in the presence or absence of Arid1a inhibitor for 48 hours followed by expansion in IL-15 containing medium for another 4 days prior to adoptive transfer. Data are representative of two independent experiments. Data are shown as mean±s.e.m. *p<0.05; two-tailed unpaired Student's t-test.
For human CD8^+ T cell experiments, naïve CD8^+ T cells were activated by human CD3/CD28 T cell activator (StemCell) with or without an Arid1a inhibitor (BRD-K98645985; 1 μM; AOBIOUS or MedChemExpress) for two days and cultured in rhIL-15 (10 ng/ml, Peprotech) containing medium. Activated CD8^+ T cells (3×10^6) were then transferred to NOD scid gamma mice sold under the tradename NSG®. After 30 days, splenic cells were analyzed by flow cytometry.
The effect of the Arid1a inhibitor on the differentiation of activated, human CD8^+ T cells was also analyzed. Human naïve CD8^+ T cells from healthy donors were enriched and stimulated with anti-CD3/CD28, following by culturing in IL-15 or IL-2, two cytokines that respectively promote in vitro TMEM-like and TEFF-like cell formation (Buck et al. (2016) Cell 166:63-76; Mitchell et al. (2010) J. Immunol. 184:6719-6730). Arid1a inhibitor was added during different periods of culture. […] After 30 days, T cells were recovered and analyzed.

[8] = tested on: human CD8^+ T cells; assay: Differentiation of activated human naive CD8+ T cells in vitro (TCM, TSCM, TEM markers); type: cell-based; settings: treatment during the first 48 hours; anti-CD3/CD28, culture in IL-15 or IL-2; FIG. 8
Method: Naïve human CD8^+ T cells were activated with anti-CD3/CD28 and cultured with IL-15; Arid1a inhibitor was added at the indicated time point (n=6 per group). Data are compiled from at least two independent experiments. Data are representative of two independent experiments. Data shown are as mean±s.e.m. *p<0.05, **p<0.01, ***p<0.001; one-way ANOVA.
Human Naïve CD8^+ T Cell Isolation and Stimulation. Human naive CD8^+ T cells were isolated from apheresis ring obtained from the St. Jude blood donor center. Peripheral blood mononuclear cells (PBMC) were isolated using a density gradient medium sold under the tradename LYMPHOPREP® (StemCell Inc.) following the manufacturer's protocol. Briefly, blood from apheresis ring was mixed with phosphate-buffered saline (PBS) containing 2% fetal bovine serum in 1:1 ratio. The mixture was then layered carefully on a density gradient medium sold under the tradename LYMPHOPREP®. Samples were centrifuged at 4000 rpm for 30 minutes at room temperature without braking. The PBMC layer was aspirated, washed twice with 2% fetal calf serum/PBS before isolation of naïve CD8^+ T cell using the MojoSort Human CD8^+ Naïve T Cell Isolation Kit (Biolegend). Naïve CD8^+ T cells were then stimulated with human T cell activation and expansion reagent sold under the tradename IMMUNOCULT® Human CD3/CD28 T Cell Activator (StemCell Inc.) plus 50 U/ml rhIL-2 or 10 ng/ml rhIL-15 for 2 days and expanded with 50 U/ml rhIL-2 or 10 ng/ml rhIL-15. BRD-K98645985 (1 μM; AOBIOUS or MedChemExpress) was added at the indicated time points. All human studies were in compliance with the Declaration of Helsinki. Blood donors were recruited by the Blood Donor Center at St. Jude Children's Research Hospital. Blood donors provided written consent for research use of their blood products not used in transfusions, which has been reviewed and approved by the Institutional Review Board at St. Jude Children's Research Hospital.
The effect of the Arid1a inhibitor on the differentiation of activated, human CD8^+ T cells was also analyzed. […] After 30 days, T cells were recovered and analyzed.

[9] = tested on: B16-Ova tumors; assay: B16-Ova tumor growth after adoptive transfer of inhibitor-pretreated OT-I cells; type: in vivo; settings: OT-I cells transiently treated with inhibitor during activation, transferred into tumor-bearing mice; FIG. 2
Method: Naïve OT-I CD8^+ T cells were activated with anti-CD3/CD28 in the presence or absence of Arid1a inhibitor for 48 hours followed by expansion for another 4 days. Data are representative of two independent experiments. Data are as shown mean±s.e.m. **p<0.01, ***p<0.001; two-way ANOVA.
as §4
as §5, with “post-infection).” for “post-infection). Improved control of tumor growth and enhanced survival by the Smarcd2-ablated CD8^+ T cells were observed.”

[10] = day 9 post-transfer, vs vehicle-treated CAR-T cells

CO[C@H]1CN(C)C(=O)c2cc(NC(=O)NC(C)C)ccc2OC[C@H](C)N(Cc2ccc(-c3ccccn3)cc2)C[C@@H]1C [BRD-K98645985]
tumor control (F420 tumor growth) ([1]; B7-H3 CAR-T cells from transiently inhibitor-treated T cells vs untreated, FIG. 6): markedly enhanced tumor control
survival of F420 tumor-bearing mice ([1]; B7-H3 CAR-T cells from transiently inhibitor-treated T cells vs untreated, FIG. 7): markedly enhanced
number of CAR-T cells among tumor infiltrating lymphocytes [1, 10]: higher numbers
proportion of CD62L^+CD44^+ cells among tumor infiltrating CAR-T cells [1, 10]: higher proportion of CD62L^+CD44^+ cells
expansion of CAR-T cells on repeated stimulation [2]: greater expansion
expansion of CAR-T cells on repeated stimulation [3]: greater expansion
generation of cells with the TCM marker CD62L [4]: promoted the generation of cells with the TCM marker CD62L
CAR expression compared with vehicle-treated controls [5]: no difference in CAR expression
CD62L expression of CAR-T cells [5]: high CD62L expression
control of MC38-Ova tumor growth in vivo by transferred OT-I cells [6]: improved the ability of OT-I cells to control
persistence of activated human T cells in NSG mice [7]: enhanced persistence
propensity to express markers of TCM cells in NSG mice [7]: greater propensity to express markers of TCM cells
generation of cells with markers of T memory stem cells (TSCM, CD45RA^+CCR7^+CD27^+CD95^+) [8]: necessary and sufficient to promote the generation
generation of cells with markers of TCM (CD45RA-CCR7+) [8]: necessary and sufficient to promote the generation of cells with markers of TCM
numbers of cells with markers of effector memory T cells (TEM, CD45RA^+CCR7^−) [8]: reduced numbers of cells with markers of effector memory T cells
control of B16-Ova tumor growth in vivo by transferred OT-I cells [9]: improved the ability of OT-I cells to control
